{
  "source": "patent US20260306526A1",
  "about": "“COMBINATION THERAPY FOR BACTERIAL INFECTIONS COMPRISING ZINC-CHELATOR, BETA-LACTAM ANTIBIOTIC AND SERINE BETA-LACTAMASE INHIBITOR” (priority 2023, published 2026)",
  "key": {"[1]": {"system": "Acinetobacter baumannii ST15", "assay": "MIC determination, fixed concentration of sBLI (Examples 11-18)", "assay_type": "cell-based", "details": "NDM-1, OXA-51, ADC-263, caMHB", "description": "(§1) Antimicrobial susceptibility testing (AST) by broth microdilution (MIC determination) was performed according to The European Committee on Antimicrobial Susceptibility Testing (EUCAST) guidelines (see Reading guide for broth microdilution Version 5.0, 2024: https://www.eucast.org).\n(§2) For combinations containing meropenem as the antibiotic, Sensititre™ FINMER meropenem 64-0.03 μg/mL plates (Thermo Fischer Diagnostics custom plates; YFINMER) were used in most of the experiments. For other antibiotics (and for meropenem whenever a higher start concentration than 64 μg/mL was needed) sterile clear round bottom polystyrene (non-treated) 96-well microplates (Corning 3788) were used for making serial two-fold dilutions of the antibiotic in cation-adjusted Mueller Hinton II broth (caMHB; Thermo Scientific, T3462, containing 29.4 μM Zn^2+ or MILLIPORE, 90922-500G, containing 5.6 μM Zn^2+), across the columns of the microtiter plate (128-0.06 μg/mL; columns 1-12).\nThe checkerboard plates were all modified by adding a serine β-lactamase inhibitor (sBLI) at a fixed concentration of 16 μg/mL. Additionally, the zinc chelator was added at various fixed concentrations. Samples were mixed so that all plates contained a control containing antibiotic alone (no sBLI, no zinc chelator), a sample containing antibiotic and sBLI (double combination; no zinc chelator), and a sample containing antibiotic, sBLI and zinc chelator (triple combination). All test wells used in each plate contained growth medium (caMHB), and inoculated bacteria at a final inoculum between 3-7×10^5 CFU/mL. […] Synergy for the triple combination (antibiotic, sBLI, and zinc chelator) was defined as when the MIC in any of the rows containing the zinc chelator in combination with antibiotic and sBLI (triple combination), was lower than for antibiotic alone and lower than for the antibiotic and sBLI double combination.\nAn X in rows 1~4 in the table indicates growth of the bacterial inoculum, while a blank cell indicates no growth. Concentrations (μg/mL) of MEM are given in row 0. SUL and the zinc chelator were added in fixed concentrations (SUL at 16 μg/mL in rows 2-4, zinc chelator at 16 μg/mL in row 3 and at 8 μg/mL in row 4). As a control, the effect of MEM alone was tested (row 1). All wells contained bacterial growth medium (caMHB, 29.4 μM Zn^2+) and were inoculated with the test bacterium. The grey cells indicate the meropenem MIC.\nAn X in rows 1~4 in the table indicates growth of the bacterial inoculum, while a blank cell indicates no growth. Concentrations (μg/mL) of AMOX are given in row 0. SUL and the zinc chelator were added in fixed concentrations (SUL at 16 μg/mL in rows 2-4, zinc chelator at 16 μg/mL in row 3 and at 8 μg/mL in row 4). As a control, the effect of AMOX alone was tested (row 1). All wells contained bacterial growth medium (caMHB, 29.4 μM Zn^2+) and were inoculated with the test bacterium. The grey cells indicate the amoxicillin MIC.\nTwo technical replicates were performed for each sample. An X in rows 1-8 in the table indicates growth of the bacterial inoculum, while a blank cell indicates no growth. Concentrations (μg/mL) of AMP are given in row 0. SUL and the zinc chelator were added in fixed concentrations (SUL at 16 μg/mL in rows 3-8, zinc chelator at 16 μg/mL in rows 5-6 and at 8 μg/mL in rows 7-8). As a control, the effect of AMP alone was tested (rows 1-2). All wells contained bacterial growth medium (caMHB, 29.4 μM Zn^2+) and were inoculated with the test bacterium. […]"}, "[2]": {"system": "Acinetobacter baumannii ST25", "assay": "MIC determination, fixed concentration of sBLI (Example 10)", "assay_type": "cell-based", "details": "with AMP and SUL 16 μg/mL, NDM-1, OXA-58, OXA-64, OXA-10, VEB-21, ADC-26, caMHB, 29.4 μM Zn2+", "description": "as §1, §2\nThe checkerboard plates were all modified by adding a serine β-lactamase inhibitor (sBLI) at a fixed concentration of 16 μg/mL. Additionally, the zinc chelator was added at various fixed concentrations. […]"}},
  "note": "Values joined by “and” are separate entries in the source; they are usually repeats but may differ in a detail not shown here. Equal values may be shown once.",
  "data": [
    {"smiles": "CN(C[C@H](O)[C@@H](O)[C@H](O)[C@H](O)CO)C(=O)c1ccc(CN(Cc2ccccn2)Cc2ccccn2)nc1", "note": "[zinc chelator]", "values": [
      {"measurement": "Synergy with the zinc chelator observed at concentration", "setting": "[1]; Example 11, with MEM and SUL 16 μg/mL, 29.4 μM Zn2+", "result": 16, "unit": "µg/mL"},
      {"measurement": "Synergy with the zinc chelator observed at concentration", "setting": "[1]; Example 12, with AMOX and SUL 16 μg/mL, 29.4 μM Zn2+", "result": 16, "unit": "µg/mL"},
      {"measurement": "Synergy with the zinc chelator observed at concentration", "setting": "[1]; Example 13, with AMP and SUL 16 μg/mL, 29.4 μM Zn2+", "result": 16, "unit": "µg/mL"},
      {"measurement": "Synergy with the zinc chelator observed at concentration", "setting": "[1]; Example 14, with PIP and TAZ 16 μg/mL, 29.4 μM Zn2+", "result": "16 µg/mL and 8 µg/mL"},
      {"measurement": "Synergy with the zinc chelator observed at concentration", "setting": "[1]; Example 18, with PIP and TAZ 16 μg/mL, 5.6 μM Zn2+", "result": "16 µg/mL and 8 µg/mL"},
      {"measurement": "Synergy with the zinc chelator observed at concentration", "setting": "[2]", "result": 16, "unit": "µg/mL"}
    ]}
  ]
}
